Measured values taken from the supplement of paper PMC6723410.

Test system: GUMC-403
Experiment: viability at highest tested concentration (max response) relative to DMSO (% of DMSO control); higher = less cytotoxic
Conditions: library / dose series: MIPE library, 11-point 1:3 dilution, 48 h
In short: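 The value is viability at the highest tested concentration, expressed relative to vehicle control. Patient-derived GUMC-403 papilloma cells, grown by conditional reprogramming, were seeded at 700/well in 5 μL F + Y medium in 1536-well plates. After an overnight incubation at 37 °C, they received 23 nL of compound by pin tool for 48 h. Readout was CellTiter-Glo luminescence on a ViewLux, normalised to vehicle wells (100%) and empty wells (0%).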

Compound | viability (top concentration 46.1 µM) | viability (top concentration 92.2 µM)
O=C1Cc2cc(CCN3CCN(c4nsc5ccccc45)CC3)c(Cl)cc2N1 | 100 | –
OC(Cn1cncn1)(Cn1cncn1)c1ccc(F)cc1F | 130 | –
FC(F)(F)c1ccc(Nc2nc3cc(Oc4ccnc(-c5ncc(C(F)(F)F)[nH]5)c4)ccc3[nH]2)cc1 | 97.7 | –
CC(N)C12CC3CC(CC(C3)C1)C2 (centres undefined) | 104 | –
Nc1ncnc2ccccc12 | 127 | –
CCCc1nc(C(C)(C)O)c(C(=O)O)n1Cc1ccc(-c2ccccc2-c2nn[nH]n2)cc1 | 107 | –
CNC[C@H](O)c1ccc(O)c(O)c1 | – | 104
O=c1oc2c(O)c(O)cc3c(=O)oc4c(O)c(O)cc1c4c23 | 143 | –
C[C@H]1C[C@H]2[C@@H]3CCC4=CC(=O)C=C[C@]4(C)[C@H]3C(=O)C[C@]2(C)[C@@]1(O)C(=O)CO | 104 | –
CC1(C)CCC[C@]2(C)[C@H]3CC(=O)O[C@]3(C)CC[C@@H]12 | 96 | –
NC(=O)c1noc([C@H](CCCC2CCCCC2)CC(=O)NO)n1 | 118 | –
COC(=O)N1CCN(Cc2cccc(NC(=O)Nc3ccc(C)nc3)c2F)CC1 | 105 | –
Cc1nn(Cc2ccccc2Cl)c(C)c1CN(C)CC(O)COc1ccc(Cl)cc1 (centres undefined) | 90.9 | –
S=P(N1CC1)(N1CC1)N1CC1 | 115 | –
COc1ccc(-n2nc(C(N)=O)c3c2C(=O)N(c2ccc(N4CCCCC4=O)cc2)CC3)cc1 | 146 | –
CCCCCCCc1ccc(CCc2cccc(O)c2C(=O)O)cc1 | 108 | –
NCCCCNCCCN | 121 | –
O=C([O-])C[C@H](O)C[C@H](O)/C=C/c1c(C2CC2)nc2ccccc2c1-c1ccc(F)cc1 | 92.1 | –
Cc1cnc(Nc2ccc(CN3CCOCC3)cc2)nc1Nc1cccc([S+](=O)([O-])NC(C)(C)C)c1 | 31.1 | –
CCc1ccc(CCOc2ccc(CC3SC(=O)NC3=O)cc2)nc1 (centres undefined) | 103 | –

Compound | viability (top concentration 46.1 µM) | viability (top concentration 92.2 µM)
CCCC(CCC)C(=O)[O-] | 88.8 | –
c1ccc2c(Oc3nc(Nc4ccc(N5CCOCC5)cc4)c4ncn(C5CCCCC5)c4n3)cccc2c1 | 124 | –
NC1=NC(=O)N2CC12 (centres undefined) | 138 | –
COc1cc2c(cc1OC)CN(CCc1ccc(NC(=O)c3cc(OC)c(OC)cc3NC(=O)c3cnc4ccccc4c3)cc1)CC2 | 100 | –
CC(C)(C)C1=CC(=C(NC(=O)C/2=C/NC3=C(C=CC=C3)C2=O)C=C1O)C(C)(C)C | 114 | –
Cc1cc2c(C(C)C)c(O)c(O)c(C=O)c2c(O)c1-c1c(C)cc2c(C(C)C)c(O)c(O)c(C=O)c2c1O | 77.1 | –
O=C(CS(=O)Cc1ccco1)NC/C=C\COc1cc(CN2CCCCC2)ccn1 (centres undefined) | 128 | –
COc1cc2nccc(Oc3ccc(NC(=O)C4(C(=O)Nc5ccc(F)cc5)CC4)cc3)c2cc1OC | 63.3 | –
Cc1nc(C(=O)NCC(=O)O)c(O)c2ccc(Oc3ccccc3)cc12 | 132 | –
CCC[S+](=O)([O-])Nc1ccc(F)c(C(=O)c2c[nH]c3ncc(Cl)cc23)c1F | 79.1 | –
COc1ccc(C(=O)c2c(C)n(CCN3CCOCC3)c3ccccc23)cc1 | 122 | –
NC[C@H](O)c1ccc(O)c(O)c1 | 113 | –
CC\1=C(C(=O)N(\C=C1)C2=CC=C(C=C2)C3=NC=CO3)/C4=CC5=CN=C(N)N=C5C=C4 | 79.7 | –
O=C/1NC(=O)C(=C1C2=CN=C3C=CC=C[N]23)/C4=C[N]5CCN(CC6=C5C4=CC=C6)C(=O)N7CCOCC7 | 60.5 | –
C[C@H](NC(=O)[C@@H](O)c1cc(F)cc(F)c1)C(=O)N[C@@H]1C(=O)N(C)c2ccccc2-c2ccccc21 | 99 | –
CCOC(=O)c1cncn1[C@H](C)c1ccccc1 | 111 | –
Cc1cnc(C(=O)O)c[n+]1[O-] | 117 | –
CC(C)c1cccc(C(C)C)c1O | 108 | –
O=C(O)C1(Cc2cccc(Nc3nccs3)n2)CCC(Oc2cccc(Cl)c2F)CC1 (centres undefined) | 115 | –
